Results from ChEMBL document CHEMBL4507310, “Data for DCP probe A-1211212” (2021).
Active and inactive are the calls of the source. The rule behind the calls is not given here.

Experiments:
[1] = biological target: Macrophage-stimulating protein receptor (Homo sapiens) (UniProt Q04912); conditions: Compound concentration 1000.0 nM
[2] = biological target: Serine/threonine-protein kinase SIK1 (Homo sapiens) (UniProt P57059); conditions: Compound concentration 1000.0 nM
[3] = system: Receptor-type tyrosine-protein kinase FLT3 (Homo sapiens), P36888 [UNDEFINED MUTATION]; conditions: Compound concentration 1000.0 nM
[4] = biological target: Homeodomain-interacting protein kinase 3 (Homo sapiens) (UniProt Q9H422); conditions: Compound concentration 1000.0 nM
[5] = biological target: Serine/threonine-protein kinase MAK (Homo sapiens) (UniProt P20794); conditions: Compound concentration 1000.0 nM
[6] = biological target: Mu-type opioid receptor (Homo sapiens) (UniProt P35372); test: mu (MOP) (h) Eurofins-Cerep binding assay; design: ligand concentration 0.5 nM; conditions: filed as agonist, Compound concentration 10.0 uM
[7] = system: Proto-oncogene tyrosine-protein kinase receptor Ret (Homo sapiens), P07949 [V804M]; conditions: Compound concentration 1000.0 nM
[8] = biological target: Ribosomal protein S6 kinase alpha-3 (Homo sapiens) (UniProt P51812); conditions: Compound concentration 1000.0 nM
[9] = biological target: Phosphorylase b kinase gamma catalytic chain, skeletal muscle/heart isoform (Homo sapiens) (UniProt Q16816); conditions: Compound concentration 1000.0 nM
[10] = biological target: Serine/threonine-protein kinase D3 (Homo sapiens) (UniProt O94806); conditions: Compound concentration 1000.0 nM
[11] = biological target: Receptor-interacting serine/threonine-protein kinase 1 (Homo sapiens) (UniProt Q13546); conditions: Compound concentration 1000.0 nM
[12] = biological target: Serine/threonine-protein kinase Nek7 (Homo sapiens) (UniProt Q8TDX7); conditions: Compound concentration 1000.0 nM
[13] = biological target: Sulfonylurea receptors; K-ATP channels (Rattus norvegicus) (UniProt Q63563+P70673+Q63664+Q09429); test: KATP channel Eurofins-Cerep binding assay; format: protein-complex assay; design: ligand concentration 0.1 nM; conditions: filed as antagonist, Compound concentration 10.0 uM
[14] = biological target: Mitogen-activated protein kinase kinase kinase 4 (Homo sapiens) (UniProt Q9Y6R4); conditions: Compound concentration 1000.0 nM
[15] = biological target: Phosphatidylinositol 5-phosphate 4-kinase type-2 beta (Homo sapiens) (UniProt P78356); conditions: Compound concentration 1000.0 nM
[16] = biological target: Serine/threonine-protein kinase 33 (Homo sapiens) (UniProt Q9BYT3); conditions: Compound concentration 1000.0 nM
[17] = biological target: Apoptosis regulator Bcl-2 (Homo sapiens, UniProt P10415); test: Time-resolved fluorescence energy transfer (TR-FRET) with BCL2
[18] = biological target: Tyrosine-protein kinase Tec (Homo sapiens) (UniProt P42680); conditions: Compound concentration 1000.0 nM
[19] = biological target: T1, Muscarinic acetylcholine receptor M4 (Homo sapiens) (UniProt P08173); conditions: Compound concentration 10.0 uM
T1 sequence (whole entry): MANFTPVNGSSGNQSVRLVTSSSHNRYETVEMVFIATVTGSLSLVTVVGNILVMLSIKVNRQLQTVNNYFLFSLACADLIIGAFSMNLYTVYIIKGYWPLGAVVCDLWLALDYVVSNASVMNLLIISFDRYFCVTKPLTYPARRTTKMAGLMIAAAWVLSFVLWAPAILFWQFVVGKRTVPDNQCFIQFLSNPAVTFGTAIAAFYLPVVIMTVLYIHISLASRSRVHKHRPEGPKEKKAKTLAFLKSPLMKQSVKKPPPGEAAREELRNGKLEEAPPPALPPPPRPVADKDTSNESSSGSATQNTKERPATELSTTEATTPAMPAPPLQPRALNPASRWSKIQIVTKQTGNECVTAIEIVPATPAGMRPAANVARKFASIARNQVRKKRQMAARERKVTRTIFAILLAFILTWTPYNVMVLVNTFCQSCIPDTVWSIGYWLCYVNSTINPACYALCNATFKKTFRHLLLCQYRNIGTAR

[20] = biological target: Serine/threonine-protein kinase pim-1 (Homo sapiens) (UniProt P11309); conditions: Compound concentration 1000.0 nM
[21] = biological target: Mast/stem cell growth factor receptor Kit (Homo sapiens) (UniProt P10721); conditions: Compound concentration 1000.0 nM
[22] = biological target: Fibroblast growth factor receptor 1 (Homo sapiens) (UniProt P11362); conditions: Compound concentration 1000.0 nM
[23] = biological target: Mitogen-activated protein kinase kinase kinase 11 (Homo sapiens) (UniProt Q16584); conditions: Compound concentration 1000.0 nM
[24] = biological target: Dual specificity protein kinase TTK (Homo sapiens) (UniProt P33981); conditions: Compound concentration 1000.0 nM
[25] = biological target: Cyclin-dependent kinase 11A (Homo sapiens) (UniProt Q9UQ88); conditions: Compound concentration 1000.0 nM
[26] = biological target: Sodium-dependent serotonin transporter (Homo sapiens) (UniProt P31645); test: 5-HT transporter (h) Eurofins-Cerep binding assay; design: ligand concentration 2 nM; conditions: filed as antagonist, Compound concentration 10.0 uM
[27] = biological target: cAMP-dependent protein kinase catalytic subunit alpha (Homo sapiens) (UniProt P17612); conditions: Compound concentration 1000.0 nM
[28] = biological target: Serine/threonine-protein kinase 10 (Homo sapiens) (UniProt O94804); conditions: Compound concentration 1000.0 nM
[29] = biological target: Interferon-induced, double-stranded RNA-activated protein kinase (Homo sapiens) (UniProt P19525); conditions: Compound concentration 1000.0 nM
[30] = biological target: Cyclin-G-associated kinase (Homo sapiens) (UniProt O14976); conditions: Compound concentration 1000.0 nM
[31] = biological target: Calcium/calmodulin-dependent protein kinase type II subunit gamma (Homo sapiens) (UniProt Q13555); conditions: Compound concentration 1000.0 nM
[32] = system: Receptor-type tyrosine-protein kinase FLT3 (Homo sapiens), P36888 [R834Q]; conditions: Compound concentration 1000.0 nM
[33] = biological target: Ephrin type-B receptor 4 (Homo sapiens) (UniProt P54760); conditions: Compound concentration 1000.0 nM
[34] = biological target: Fibroblast growth factor receptor 3 (Homo sapiens) (UniProt P22607); conditions: Compound concentration 1000.0 nM
[35] = biological target: Activated CDC42 kinase 1 (Homo sapiens) (UniProt Q07912); conditions: Compound concentration 1000.0 nM
[36] = biological target: Testis-specific serine/threonine-protein kinase 1 (Homo sapiens) (UniProt Q9BXA7); conditions: Compound concentration 1000.0 nM
[37] = biological target: Serine/threonine-protein kinase WNK3 (Homo sapiens) (UniProt Q9BYP7); conditions: Compound concentration 1000.0 nM

Chain of Serine/threonine-protein kinase Nek7 (Homo sapiens) (Q8TDX7 whole entry, looked up): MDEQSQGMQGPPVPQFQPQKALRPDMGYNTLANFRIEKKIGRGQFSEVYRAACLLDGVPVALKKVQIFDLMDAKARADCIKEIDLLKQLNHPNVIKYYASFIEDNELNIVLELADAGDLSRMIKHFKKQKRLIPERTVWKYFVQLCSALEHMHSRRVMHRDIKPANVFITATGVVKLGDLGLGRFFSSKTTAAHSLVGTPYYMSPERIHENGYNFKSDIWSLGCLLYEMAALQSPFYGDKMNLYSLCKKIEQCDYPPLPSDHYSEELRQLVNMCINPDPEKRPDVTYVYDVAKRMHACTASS
Chain of Phosphatidylinositol 5-phosphate 4-kinase type-2 beta (Homo sapiens) (P78356 whole entry): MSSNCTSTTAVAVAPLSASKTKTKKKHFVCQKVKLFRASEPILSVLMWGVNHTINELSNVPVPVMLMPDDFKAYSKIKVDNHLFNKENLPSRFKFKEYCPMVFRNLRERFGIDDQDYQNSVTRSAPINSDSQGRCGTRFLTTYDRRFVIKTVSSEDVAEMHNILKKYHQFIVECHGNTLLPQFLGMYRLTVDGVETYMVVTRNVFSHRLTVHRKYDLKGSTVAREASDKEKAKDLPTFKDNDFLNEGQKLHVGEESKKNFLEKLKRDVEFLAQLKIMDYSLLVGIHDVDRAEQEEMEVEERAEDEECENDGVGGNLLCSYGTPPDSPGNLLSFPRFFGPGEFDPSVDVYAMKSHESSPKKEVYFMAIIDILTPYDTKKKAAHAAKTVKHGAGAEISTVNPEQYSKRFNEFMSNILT
Chain of Mu-type opioid receptor (Homo sapiens) (P35372 whole entry): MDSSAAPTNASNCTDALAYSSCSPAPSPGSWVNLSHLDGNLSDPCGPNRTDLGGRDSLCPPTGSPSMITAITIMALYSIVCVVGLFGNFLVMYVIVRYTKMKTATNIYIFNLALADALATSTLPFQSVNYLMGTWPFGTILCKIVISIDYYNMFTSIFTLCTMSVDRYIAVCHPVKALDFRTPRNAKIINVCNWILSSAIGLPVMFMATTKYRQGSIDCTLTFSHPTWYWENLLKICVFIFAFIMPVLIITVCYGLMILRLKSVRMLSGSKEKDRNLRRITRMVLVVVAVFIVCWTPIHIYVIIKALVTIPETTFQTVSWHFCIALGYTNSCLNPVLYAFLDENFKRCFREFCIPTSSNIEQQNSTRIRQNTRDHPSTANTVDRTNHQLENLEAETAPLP
Chain of Serine/threonine-protein kinase 10 (Homo sapiens) (O94804 whole entry, looked up): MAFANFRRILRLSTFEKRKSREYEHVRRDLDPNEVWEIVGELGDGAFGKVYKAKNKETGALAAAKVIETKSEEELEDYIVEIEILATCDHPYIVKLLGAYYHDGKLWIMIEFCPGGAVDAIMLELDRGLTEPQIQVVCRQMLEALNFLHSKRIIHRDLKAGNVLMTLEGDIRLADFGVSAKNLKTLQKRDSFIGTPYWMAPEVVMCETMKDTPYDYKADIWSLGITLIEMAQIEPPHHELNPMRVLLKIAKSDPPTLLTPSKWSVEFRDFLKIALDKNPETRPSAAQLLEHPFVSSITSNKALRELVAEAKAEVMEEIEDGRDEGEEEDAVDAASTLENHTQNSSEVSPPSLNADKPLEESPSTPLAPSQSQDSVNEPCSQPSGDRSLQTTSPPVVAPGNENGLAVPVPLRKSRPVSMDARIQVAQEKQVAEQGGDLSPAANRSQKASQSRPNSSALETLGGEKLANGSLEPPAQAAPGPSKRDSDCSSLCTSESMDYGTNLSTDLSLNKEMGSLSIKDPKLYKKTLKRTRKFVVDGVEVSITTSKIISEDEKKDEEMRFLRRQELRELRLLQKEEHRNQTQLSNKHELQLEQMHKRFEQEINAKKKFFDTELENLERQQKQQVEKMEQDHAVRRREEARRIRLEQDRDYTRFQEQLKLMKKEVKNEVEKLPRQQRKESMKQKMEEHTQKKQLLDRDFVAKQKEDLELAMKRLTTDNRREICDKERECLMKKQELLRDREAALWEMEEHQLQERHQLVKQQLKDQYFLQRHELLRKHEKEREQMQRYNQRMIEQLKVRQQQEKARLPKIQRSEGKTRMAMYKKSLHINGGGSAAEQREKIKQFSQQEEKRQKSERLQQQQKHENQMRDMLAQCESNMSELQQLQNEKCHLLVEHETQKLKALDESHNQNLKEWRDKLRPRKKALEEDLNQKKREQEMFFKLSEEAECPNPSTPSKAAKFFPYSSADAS
Chain of Proto-oncogene tyrosine-protein kinase receptor Ret (Homo sapiens), P07949 [V804M] (P07949 whole entry V804M): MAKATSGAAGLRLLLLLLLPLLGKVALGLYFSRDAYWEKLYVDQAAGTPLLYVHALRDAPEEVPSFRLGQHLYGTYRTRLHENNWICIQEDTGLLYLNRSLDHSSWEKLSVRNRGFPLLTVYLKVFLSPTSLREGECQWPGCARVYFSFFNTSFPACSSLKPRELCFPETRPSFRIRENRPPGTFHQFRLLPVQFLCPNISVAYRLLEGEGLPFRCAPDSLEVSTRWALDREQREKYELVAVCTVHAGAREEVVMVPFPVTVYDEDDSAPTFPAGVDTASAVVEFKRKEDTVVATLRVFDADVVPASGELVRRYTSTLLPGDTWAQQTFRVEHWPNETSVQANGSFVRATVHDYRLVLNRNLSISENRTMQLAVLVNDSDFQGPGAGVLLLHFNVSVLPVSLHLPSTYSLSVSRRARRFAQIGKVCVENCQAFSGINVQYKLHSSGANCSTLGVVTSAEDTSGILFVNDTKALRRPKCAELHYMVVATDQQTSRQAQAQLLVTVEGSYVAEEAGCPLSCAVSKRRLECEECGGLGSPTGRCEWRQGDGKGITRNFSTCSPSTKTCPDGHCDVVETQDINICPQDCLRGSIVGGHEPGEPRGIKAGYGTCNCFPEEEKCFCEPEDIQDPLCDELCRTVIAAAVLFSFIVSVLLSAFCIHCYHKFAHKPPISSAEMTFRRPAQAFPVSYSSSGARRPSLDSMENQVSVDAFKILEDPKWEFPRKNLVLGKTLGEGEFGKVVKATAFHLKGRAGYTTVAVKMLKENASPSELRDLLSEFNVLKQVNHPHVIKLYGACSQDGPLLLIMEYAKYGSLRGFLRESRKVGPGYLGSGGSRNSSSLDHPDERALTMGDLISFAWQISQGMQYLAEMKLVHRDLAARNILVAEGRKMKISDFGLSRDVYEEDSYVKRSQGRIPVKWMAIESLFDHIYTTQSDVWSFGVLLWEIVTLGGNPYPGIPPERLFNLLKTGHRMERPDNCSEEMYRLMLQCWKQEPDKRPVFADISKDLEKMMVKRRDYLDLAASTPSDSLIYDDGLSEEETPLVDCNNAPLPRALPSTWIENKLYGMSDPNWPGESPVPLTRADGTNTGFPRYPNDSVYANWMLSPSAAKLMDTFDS
Chain of Calcium/calmodulin-dependent protein kinase type II subunit gamma (Homo sapiens) (Q13555 whole entry): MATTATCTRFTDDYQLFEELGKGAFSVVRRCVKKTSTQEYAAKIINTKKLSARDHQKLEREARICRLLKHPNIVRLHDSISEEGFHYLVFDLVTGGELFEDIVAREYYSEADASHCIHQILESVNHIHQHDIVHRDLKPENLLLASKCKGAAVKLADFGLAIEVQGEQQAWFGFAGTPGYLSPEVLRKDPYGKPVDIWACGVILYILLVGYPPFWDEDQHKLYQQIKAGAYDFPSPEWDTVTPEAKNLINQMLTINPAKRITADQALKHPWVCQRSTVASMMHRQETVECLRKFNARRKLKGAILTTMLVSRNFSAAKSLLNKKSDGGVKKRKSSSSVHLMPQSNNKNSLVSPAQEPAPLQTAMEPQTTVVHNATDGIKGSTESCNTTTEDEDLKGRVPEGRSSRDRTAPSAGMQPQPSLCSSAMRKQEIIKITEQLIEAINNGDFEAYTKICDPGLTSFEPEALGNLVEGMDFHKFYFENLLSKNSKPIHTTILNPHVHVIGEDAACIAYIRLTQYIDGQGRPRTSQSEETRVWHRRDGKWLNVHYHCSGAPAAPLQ
Chain of Testis-specific serine/threonine-protein kinase 1 (Homo sapiens) (Q9BXA7 whole entry): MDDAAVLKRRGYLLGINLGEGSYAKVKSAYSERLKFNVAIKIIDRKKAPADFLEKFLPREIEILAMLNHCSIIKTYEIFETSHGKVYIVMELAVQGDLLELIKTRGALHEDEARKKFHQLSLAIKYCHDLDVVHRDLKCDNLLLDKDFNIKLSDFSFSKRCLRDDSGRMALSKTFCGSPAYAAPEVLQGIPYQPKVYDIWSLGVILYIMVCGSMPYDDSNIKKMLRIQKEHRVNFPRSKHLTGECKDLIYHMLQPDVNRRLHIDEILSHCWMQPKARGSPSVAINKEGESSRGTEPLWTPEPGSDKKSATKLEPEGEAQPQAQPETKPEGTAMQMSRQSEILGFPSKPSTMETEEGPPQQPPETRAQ
Chain of Cyclin-dependent kinase 11A (Homo sapiens) (Q9UQ88 whole entry): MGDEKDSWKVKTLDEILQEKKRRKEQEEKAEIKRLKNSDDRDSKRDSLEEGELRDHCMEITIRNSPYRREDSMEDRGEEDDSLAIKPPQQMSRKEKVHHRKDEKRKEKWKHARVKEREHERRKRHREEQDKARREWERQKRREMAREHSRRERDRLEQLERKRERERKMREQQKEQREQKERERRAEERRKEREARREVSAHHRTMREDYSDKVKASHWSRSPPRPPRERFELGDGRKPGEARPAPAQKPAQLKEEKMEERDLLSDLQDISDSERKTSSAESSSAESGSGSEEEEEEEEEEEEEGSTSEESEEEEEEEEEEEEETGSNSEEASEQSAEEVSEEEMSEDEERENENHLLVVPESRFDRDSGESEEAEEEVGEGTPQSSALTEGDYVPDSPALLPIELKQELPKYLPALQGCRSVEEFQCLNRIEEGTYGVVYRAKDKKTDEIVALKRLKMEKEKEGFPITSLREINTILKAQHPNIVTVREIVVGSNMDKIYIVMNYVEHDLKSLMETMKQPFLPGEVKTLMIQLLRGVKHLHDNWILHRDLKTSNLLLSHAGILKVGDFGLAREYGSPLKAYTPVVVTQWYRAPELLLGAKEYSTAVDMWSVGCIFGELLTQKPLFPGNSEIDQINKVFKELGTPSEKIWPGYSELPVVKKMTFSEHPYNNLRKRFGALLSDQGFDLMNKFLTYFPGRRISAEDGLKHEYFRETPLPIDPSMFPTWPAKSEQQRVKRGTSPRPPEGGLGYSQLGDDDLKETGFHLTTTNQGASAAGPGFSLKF

SMILES	residual activity [1]	residual activity [2]	residual activity [3]	residual activity [4]	residual activity [5]	% Inhibition of Control Specific Binding (Mean n=2) [6]	residual activity [7]	residual activity [8]	residual activity [9]	residual activity [10]	residual activity [11]	residual activity [12]	% Inhibition of Control Specific Binding (Mean n=2) [13]	residual activity [14]	residual activity [15]	residual activity [16]	IC50 [17]	residual activity [18]	inhibition [19]	residual activity [20]	further results
O=C(NS(=O)(=O)c1ccc(NCC2CCOCC2)c([N+](=O)[O-])c1)c1ccc(N2CCN(Cc3ccc(C(F)(F)F)cc3-c3ccc(Cl)cc3)CC2)cc1Oc1cnc2[nH]ccc2c1 [A-1210227]	96%	90%	88%	100%	97%	2.8%	100%	100%	100%	100%	99%	97%	9.9%	94%	100%	100%	296 nM (not active)	71%	-5.79%	92%	residual activity [21]: 100%; residual activity [22]: 91%; residual activity [23]: 91%; residual activity [24]: 100%; residual activity [25]: 100%; % Inhibition of Control Specific Binding (Mean n=2) [26]: 0.4%; residual activity [27]: 76%; residual activity [28]: 100%; residual activity [29]: 94%; residual activity [30]: 100%; residual activity [31]: 88%; residual activity [32]: 80%; residual activity [33]: 100%; residual activity [34]: 100%; residual activity [35]: 100%; residual activity [36]: 100%; residual activity [37]: 100%
CO[C@H]1CC[C@H](CNc2ccc(S(=O)(=O)NC(=O)c3ccc(N4CCN(CC5=C(c6ccc(Cl)cc6)CC(C)(C)CC5)CC4)cc3Oc3cnc4[nH]ccc4c3)cc2[N+](=O)[O-])CC1 [A-1211212]	92%	90%	100%	100%	90%	12.9%	93%	71%	100%	100%	77%	82%	9.7%	90%	96%	100%	1.4 nM (active)	74%	-0.31%	72%	residual activity [21]: 91%; residual activity [22]: 68%; residual activity [23]: 74%; residual activity [24]: 82%; residual activity [25]: 95%; % Inhibition of Control Specific Binding (Mean n=2) [26]: -2.2%; residual activity [27]: 78%; residual activity [28]: 74%; residual activity [29]: 90%; residual activity [30]: 99%; residual activity [31]: 75%; residual activity [32]: 100%; residual activity [33]: 100%; residual activity [34]: 95%; residual activity [35]: 96%; residual activity [36]: 67%; residual activity [37]: 100%
